From patent publication US12698523B2, “Enhancement of nucleic acid polymerization by aromatic compounds” (priority 2019, dated 2026)

What was measured:
[1] = test system: DNA polymerase; assay: Screen of PEMs for enhancement of XNTP polymerization (primer extension reaction, gel electrophoresis); assay type: biochemical; conditions: for DNA polymerase-mediated primer extension with XNTPs (length of extension products): FIG. 4 gel, no PEM additive: up to only around 14 XNTPs
Description: The Sequencing by Expansion (SBX) methodology developed by the inventors provides significant performance enhancements in sequence read efficiency and accuracy of Xpandomers relative to native DNA. However, initial transcription of the sequence of the natural DNA template onto the measurable Xpandomer relies on the ability of DNA polymerase to utilize XNTPs as substrates (the generalized structure of an XNTP is discussed herein with reference to FIG. 1A and FIG. 2). […] In an effort to improve the efficiency and accuracy of XNTP polymerization into Xpandomers, several PEMs were screened for the ability to enhance DNA polymerase primer extension reactions using XNTPs as substrates.
A representative primer extension reaction may include the following reagents: 2 pmol primer, 2.2 pmol 45mer oligonucleotide template, 50 pmol of each XNTP (XATP, XCTP, XGTP, and XTTP), 50 Mm Tris HCl, Ph 6.79, 200 Mm NaCl, 20% PEG, 5% NMS, 0.5 nmol polyphosphate 60.19, 0.3 Mm MnCl2, and 0.6 μg of purified recombinant DNA polymerase protein. Reactions may be run for 1 hr at 23° C. Reaction products (i.e., constrained Xpandomers) are treated to cleave the phosphoramidate bonds, thereby generating linearized Xpandomers. Reaction products may be analyzed using gel electrophoresis on 4-12% acrylamide gels to resolve and visualize Xpandomer products of different lengths. For the PEM screen described above, PEMs were typically tested in the micro to millimolar range.
Again, this PEM activity is specific for compound 2, as other unrelated aromatic compounds had no effect (lanes 2-7).

[2] = biological target: T1, C4552 DNA polymerase (Saccharolobus solfataricus, UniProt Q97W02, A155G/A42V/D156R/D292Y/D294N/E291S/E324K/E325K/E327K/E79L/G187P/G299W/I153V/I189F/I248T/I295S/K152A/K317Q/K321Q/K56Y/K78D/L293W/M76W/N188Y/P184Q/Q82W/Q83G/R300S/S297Y/S86E/T290K/T301W/V289W/V296Q); assay: Primer extension assay with three 100mer templates derived from the HIV1, 2 and 3 genomes; assay type: biochemical, Sulfolobus solfataricus; conditions: 0.5 Mm PEM; HIV1, HIV2, HIV3 100mer templates; 30 minutes at 23° C.; FIG. 9
T1 construct: made in house
T1 sequence (Q97W02 other isoform, or with tags, fused parts or gaps with the stated changes): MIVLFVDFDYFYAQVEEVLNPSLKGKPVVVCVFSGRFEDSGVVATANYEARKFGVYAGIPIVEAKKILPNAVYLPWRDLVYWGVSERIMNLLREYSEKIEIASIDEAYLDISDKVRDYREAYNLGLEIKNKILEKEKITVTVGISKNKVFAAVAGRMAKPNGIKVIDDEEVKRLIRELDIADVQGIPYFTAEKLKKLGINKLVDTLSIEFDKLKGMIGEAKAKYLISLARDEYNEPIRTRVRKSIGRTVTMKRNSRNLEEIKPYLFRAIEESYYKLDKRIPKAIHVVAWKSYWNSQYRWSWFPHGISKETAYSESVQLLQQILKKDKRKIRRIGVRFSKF
Experimental: PEM activity of compounds 9-11 was tested in primer extension assays using three 100mer templates, derived from the HIV1, 2, and 3 genomes. Primer extension reactions included the following reagents: 75 Mm TrisCl, Ph 8.44, 175 Mm NH4Oac, 20% PEG8K, 5% NMS, 0.8 nmol PP-60.20, 0.6 Mm MnCl2, 2.3 μg Tth single-strand binding protein (SSB), 0.5 M or 1 M urea, 200 pmol each XNTP, 1.1 pmol template, 1 pmol oligonucleotide primer, 1.2 μg purified recombinant C4552 DNA polymerase, and 0.5 Mm PEM. 10 μL primer extension reactions were run for 30 minutes at 23° C. and reaction products were analyzed by gel electrophoresis.

[3] = biological target: T2, C4760 DNA polymerase (a variant of DPO4, SEQ ID NO:2) (Saccharolobus solfataricus, UniProt Q97W02, A155G/A42V/D156R/D292Y/D294N/E291S/E324K/E325K/E327K/E63R/E79L/G187P/G299W/I153V/I189F/I248T/I295S/K152A/K317Q/K321Q/K56Y/K78D/L293W/M76W/N188Y/P184Q/Q82W/Q83G/R300S/S297Y/S86E/T290K/T301W/V289W/V296Q); assay: Primer extension assay with the HIV2 100mer template; assay type: biochemical, Sulfolobus solfataricus; conditions: HIV2-derived 100mer template
T2 construct: made in house
T2 sequence (Q97W02 other isoform, or with tags, fused parts or gaps with the stated changes): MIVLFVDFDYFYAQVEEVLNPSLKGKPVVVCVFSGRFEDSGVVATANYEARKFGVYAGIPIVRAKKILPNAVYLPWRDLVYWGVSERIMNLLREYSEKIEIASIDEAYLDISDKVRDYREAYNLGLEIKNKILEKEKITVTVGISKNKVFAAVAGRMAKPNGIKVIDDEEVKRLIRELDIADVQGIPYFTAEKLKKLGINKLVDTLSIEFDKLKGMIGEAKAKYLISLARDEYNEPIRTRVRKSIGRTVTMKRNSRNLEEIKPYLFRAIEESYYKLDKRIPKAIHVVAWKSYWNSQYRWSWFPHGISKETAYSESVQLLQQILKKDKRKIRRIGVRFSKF
Experimental: PEM activity of compound 12 was tested in primer extension assays using the HIV2 100mer template. Primer extension reactions included the following reagents: 50 Mm TrisCl, 200 Mm NH4Oac, 20% PEG8K, 5% NMS, 0.6 nmol PP-60.20, 0.6 Mm MnCl2, 2.75 μg/μl Eco single-strand binding protein (SSB), 1 M urea, 50 pmol each XNTP, 1.1 pmol template, 1 pmol oligonucleotide primer, 1.2 μg/μl purified recombinant C4760 DNA polymerase (SEQ ID NO:2), and 0.5, 1, or 1.5 Mm PEM. 10 μL primer extension reactions were run for 30 minutes at 23° C. and reaction products were analyzed by gel electrophoresis. […] Lanes 2-4 show primer extension products from reactions with a structurally related additive lacking robust PEM activity.
PEM activity of compounds 13 and 14 was tested in primer extension assays using the HIV2 100mer template. Primer extension reactions included the following reagents: 50 Mm TrisCl, 200 Mm NH4Oac, 20% PEG8K, 5% NMS, 0.6 nmol PP-60.20, 0.6 Mm MnCl2, 2.75 μg/μl Eco single-strand binding protein (SSB), 1 M urea, 50 pmol each XNTP, 1.1 pmol template, 1 pmol oligonucleotide primer, 1.2 μg/μl purified recombinant C4760 DNA polymerase (a variant of DPO4, see SEQ ID NO:2), and 0.5, 1, 1.52, or 2.5 Mm PEM. 10 μL primer extension reactions were run for 30 minutes at 23° C. and reaction products were analyzed by gel electrophoresis. A representative gel showing primer extension products is presented in FIG. 11 (the position of the full length HIV2 100mer is indicated by the arrow).
PEM activity of compounds 16, 17, and 18 and combinations thereof were tested in primer extension assays using the HIV2-derived 100mer template. Primer extension reactions included the following reagents: 50 Mm TrisCl, 200 Mm NH4Oac, 20% or 25% PEG8K, 5% NMS, 0.6 nmol PP-60.20, 0.6 Mm MnCl2, 2 μg Kod single-strand binding protein (SSB), 1 M urea, 50 pmol each XNTP, 1 pmol template, 1 pmol oligonucleotide primer, 1.2 μg purified recombinant C4760 DNA polymerase (a variant of DPO4, see SEQ ID NO:2), and 0.5-2 Mm PEM. 10 μL primer extension reactions were run for 30 minutes at 37° C. and reaction products were analyzed by gel electrophoresis. A representative gel showing primer extension products is presented in FIG. 13 (the position of a 100mer product is indicated by the arrow).

[4] = biological target: T2, C4760 DNA polymerase (a variant of DPO4, SEQ ID NO:2); assay: Primer extension on a 45mer RNA template derived from the HIV2 genome sequence; assay type: biochemical, Sulfolobus solfataricus; conditions: 2 Mm PEM; 45mer RNA template from HIV2 genome; 30 minutes at 37° C.
Experimental: To begin to investigate the potential of PEMs to enhance diverse polymerase reactions, the ability of PEMS to enable DNA polymerase to utilize RNA as a template was tested. An initial screen of several compounds set forth in Table I was conducted using a 45mer RNA template derived from the HIV2 genome sequence. Primer extension reactions included the following reagents: 50 Mm TrisCl, 200 Mm NH4Oac, 20% PEG8K, 5% NMS, 0.6 nmol PP-60.20, 0.6 Mm MnCl2, 2 μg Kod single-strand binding protein (SSB), 1 M urea, 50 pmol each XNTP, 0.5 pmol template, 0.5 pmol oligonucleotide primer, 1.2 μg purified recombinant C4760 DNA polymerase (a variant of DPO4, see SEQ ID NO:2), and 2 Mm PEM. 10 μL primer extension reactions were run for 30 minutes at 37° C. and reaction products were analyzed by gel electrophoresis.

Q: How did the “primer extension activity with XNTPs” value ([1]; FIG. 5 gel, compound at various concentrations (lanes 8-10)) turn out when `O=C(O)c1ccc(-n2cc(-c3cncc(-c4cn(-c5ccc(C(=O)O)c(O)c5)nn4)c3)nn2)cc1O` [Compound 2, 4,4′-(pyridine-3,5-diylbis(1H-1,2,3-triazole-4,1-diyl))bis(2-hydroxybenzoic acid)] was run?
A: significantly enhances primer extension activity

Q: `O=C(O)c1ccc(-n2cc(-c3cccc(-c4cn(-c5ccc(C(=O)O)c(O)c5)nn4)c3)nn2)cc1O` [Compound 3, 4,4′-(1,3-phenylenebis(1H-1,2,3-triazole-4,1-diyl))bis(2-hydroxybenzoic acid)] was tested. Which “DNA polymerase-mediated primer extension with XNTPs (length of extension products)” value [1] did it give?
A: considerably longer extension products

Q: Which “DNA polymerase-mediated primer extension with XNTPs (length of extension products)” value [1] does the source give for `O=C(O)c1ccc(-n2cc(-c3ccc4[nH]c5ccc(-c6cn(-c7ccc(C(=O)O)c(O)c7)nn6)cc5c4c3)nn2)cc1O` [Compound 4, 4,4′-((9H-carbazole-3,6-diyl)bis(1H-1,2,3-triazole-4,1-diyl))bis(2-hydroxybenzoic acid)] here?
A: considerably longer extension products

Q: `COc1cc(-c2cn(-c3ccc(C(=O)O)c(O)c3)nn2)nc(-c2cn(-c3ccc(C(=O)O)c(O)c3)nn2)c1` [Compound 9, 4,4′-((4-methoxypyridine-2,6-diyl)bis(1H-1,2,3-triazole-4,1-diyl))bis(2-hydroxybenzoic acid)] was tested. Which “polymerization of XNTPs into full length Xpandomer copies (PEM activity)” value [2] did it give?
A: enable XNTP polymerization at least as efficiently as compound 1

Q: Which “polymerization of XNTPs into full length Xpandomer copies (PEM activity)” value [2] does the source give for `O=C(O)c1ccc(-n2cc(-c3cc([N+](=O)[O-])cc(-c4cn(-c5ccc(C(=O)O)c(O)c5)nn4)n3)nn2)cc1O` [Compound 11, 4,4′-((4-nitropyridine-2,6-diyl)bis(1H-1,2,3-triazole-4,1-diyl))bis(2-hydroxybenzoic acid)] here?
A: enable XNTP polymerization at least as efficiently as compound 1

Q: What does the source list for `CCNC(=O)c1cc(-c2cn(-c3ccc(C(=O)O)c(O)c3)nn2)nc(-c2cn(-c3ccc(C(=O)O)c(O)c3)nn2)c1` [Compound 17, 4,4′-((4-(ethylcarbamoyl)pyridine-2,6-diyl)bis(1H-1,2,3-triazole-4,1-diyl))bis(2-hydroxybenzoic acid)]?
A: polymerization of XNTPs into lengthy Xpandomer copies (PEM activity) ([3]; 2 Mm compound 16, 0.5, 1, 2, and 3 Mm compound 17, Kod SSB, 30 minutes at 37° C., FIG. 13): enable polymerization of XNTPs into lengthy Xpandomer copies of the 100mer template in a manner comparable to that of compound 14; polymerization of XNTPs into lengthy Xpandomer copies, combination of PEMs ([3]; combination of 2 Mm compound 14 and 0.1 Mm or 0.3 Mm compound 17, FIG. 13 lanes 7-9): also enabled polymerization of XNTPs into lengthy Xpandomer copies of the 100mer template; PEM activity on an RNA template [4]: display PEM activity on an RNA template

Q: Which “polymerization of XNTPs into full length copies, combination of PEMs” value ([3]; combination of 2 Mm compound 16 and 0.1 Mm or 0.3 Mm compound 18, FIG. 13 lanes 10-12) does the source give for `CNC(=O)c1cc(-c2cn(-c3ccc(C(=O)O)c(O)c3)nn2)nc(-c2cn(-c3ccc(C(=O)O)c(O)c3)nn2)c1` [Compound 18, 4,4′-((4-(methylcarbamoyl)pyridine-2,6-diyl)bis(1H-1,2,3-triazole-4,1-diyl))bis(2-hydroxybenzoic acid)] here?
A: enable polymerization of XNTPS into full length copies of the 100mer template
